The numbers were not newly measured in the CATMoS acute toxicity set (Mansouri et al. 2021), which cites them from elsewhere.

SMILES strings stand for the structures. Where “and” joins values, the source holds several entries; their conditions need not be identical. Equal values may be shown once.

The term LD50 denotes the dose expected to kill half of the subjects tested.

This data set can be described thus: rat acute oral toxicity. Conditions: in vivo.
With `CCC(C(=O)N1CCCC1C)(c1ccccc1)c1ccccc1` (configuration not stated), the LD50 was 326 mg/kg.
On to `CN(C)N=Nc1ccc([N+](=O)[O-])cc1`, for which the LD50 was 1660 mg/kg.
Regarding `CCCCCC=CCC1CC(=O)OC1=O` (configuration not stated), the LD50 is 1100 mg/kg.
As for `CCCCCCCC[N+](C)(CCCCCCCC)CCCCCCCC`, the LD50 was 223 mg/kg.
For the compound `CO[C@H]1CC[C@H](O[C@@H]2C[C@]3(C[C@H](O)[C@@H](C)[C@@H]([C@@H](C)C=C(C)C(=O)[C@H](C)C[C@H](C)C(=O)O)O3)O[C@]2(C)[C@H]2CC[C@@H](C)C3(O[C@@H]([C@@H]4O[C@](O)(CO)[C@@H](C)C[C@H]4C)C[C@@H]3C)O2)O[C@@H]1C` (some centres not stated), the LD50 is 7.5 mg/kg.
For `COP(=O)(OC)C(O)(C(F)F)C(F)F`, the LD50 was 9 mg/kg.
Take `CC(C)c1cccc(C(C)C)c1N=C=O`: the LD50 was 1410 mg/kg.
As to `CCN(CCNC(=O)SCC(C)C)C(=O)SCC(C)C`, the LD50 is 2710 mg/kg.
As for `C[N+](C)(C)CCC[N+]1(C)CC2C3C=CC(CC3)C2C1` (configuration not stated), the LD50 was 1730 mg/kg.
On to `O=C(NCCc1ccc(O)cc1)c1cccnc1`, for which the LD50 is 8500 mg/kg.
With `COc1ccc(OC)c(NC(=O)CNC(=O)Cc2ccc(C(=O)c3ccc(C)cc3)n2C)c1`, the LD50 was 1470 mg/kg.
In the case of `O=C(CF)Nc1ccccn1`, the LD50 is 8 mg/kg.
For the compound `CC(C#N)N1CCOCC1` (configuration not stated), the LD50 was 87 mg/kg.
Consider `CC(C(=O)O)c1ccc2c(c1)OCc1ccccc1C2=O` (configuration not stated), for which the LD50 was 34 mg/kg.
Turning to `Nc1cc(Cl)ccc1O`, the LD50 is 690 mg/kg.
Take `CCC(C)OC(C[n+]1ccccc1)c1ccccc1` (configuration not stated): the LD50 was 250 mg/kg.
Take `Cc1cccc(O)c1`: the LD50 is 242 mg/kg.
Consider `COP(=O)(OC)OC(=C(Cl)Cl)c1ccc(Cl)cc1Cl`, for which the LD50 is 109 mg/kg.
On to `COc1cc(NS(=O)(=O)c2ccc(N)cc2)ncn1`, for which the LD50 was 5620 mg/kg.
For the compound `CCOP(=O)(OC=C(Cl)Cl)OCC(Cl)CCl` (configuration not stated), the LD50 was 66 mg/kg.
As to `C#CC(=O)O`, the LD50 is 100 mg/kg.
As for `FC(F)(F)c1nc2c(Cl)cccc2[nH]1`, the LD50 was 19.2 mg/kg.
For `C1CN2CCN1CC2`, the LD50 is 1700 mg/kg.
As to `CCC(C)(C)c1ccc(Cl)c(OC(=O)NC)c1`, the LD50 is 75 mg/kg.
Take `O=CN(c1ncnc2c1ncn2CC1CC1)C1CC1`: the LD50 was 500 mg/kg.
For `CCC1(CC)COC(=O)NC1=O`, the LD50 is 71 mg/kg.
As for `COc1ccc2c(c1)c(CC(=O)O)c(C)n2C(=O)/C=C/c1ccccc1`, the 50% lethal dose (LD50) was 900 mg/kg.
In the case of `Oc1c(Cl)c(Cl)cc(Cl)c1Cc1c(Cl)cc(Cl)c(Cl)c1O`, the LD50 was 100 mg/kg.
For `CC(C)(C)N(NC(=O)c1ccc(Cl)cc1)C(=O)c1ccccc1`, the LD50 was 2850 mg/kg.
As to `CCCCOC(OCCCC)C(OCCCC)OCCCC`, the LD50 was 8900 mg/kg.
As to `COc1ccc2c(c1)c(CC(=O)Oc1ccccc1C(=O)O)c(C)n2C(=O)c1ccc(Cl)cc1`, the LD50 is 59.5 mg/kg.
Regarding `c1ccc(P(C2CCCCC2)C2CCCCC2)cc1`, the LD50 was 820 mg/kg.
On to `COCCOC(=O)CC#N`, for which the LD50 is 4300 mg/kg.
`CCOC(=O)C1=CN(C)C2CCCC(C)N2C1=O` (configuration not stated): the LD50 is 378 mg/kg.
As for `COC(F)(F)C(Cl)Cl`, the LD50 is 3600 mg/kg.
`O=C(Cl)Oc1cccc2ccccc12`: the LD50 was 2550 mg/kg.
Consider `Cc1ncc(C[n+]2csc(CCO)c2C)c(N)n1`, for which the 50% lethal dose (LD50) was 3710 mg/kg.
As to `CC(=O)N[C@@H](Cc1c[nH]c2ccccc12)C(=O)O`, the LD50 is 15000 mg/kg.
Turning to `Cc1cc(O)cc(C)c1Cl`, the LD50 is 3830 mg/kg.
As for `O=C(CCCl)OC1=C(OC(=O)CCCl)C(=O)OC1=O`, the LD50 was 7000 mg/kg.
For `Oc1ccc(C2=CCCCC2)cc1`, the LD50 was 2830 mg/kg.
As for `CNCC(O)c1cccc(NS(C)(=O)=O)c1` (configuration not stated), the LD50 was 13 mg/kg.
Regarding `Nc1ccc(C(=O)c2ccccc2)c(C(=O)O)c1`, the LD50 was 5400 mg/kg.
For `Oc1c(Cl)cc(Cl)cc1Sc1cc(Cl)cc(Cl)c1O`, the LD50 is 492 mg/kg.
As to `O=C(Oc1ccccc1)c1ccccc1C(=O)Oc1ccccc1`, the LD50 is 8000 mg/kg.
In the case of `CC1CO1` (configuration not stated), the LD50 was 380 mg/kg.
For `CCC=C(C)CO`, the LD50 is 4920 mg/kg.
As to `CC1=C(C(=O)OCCN(C)Cc2ccc(F)cc2)C(c2cccc3c2OCO3)C(C(=O)OC(C)C)=C(C)N1` (configuration not stated), the LD50 was 64 mg/kg.
As for `O=C1CCC2CCCCC2O1` (configuration not stated), the LD50 is 3900 mg/kg.
Turning to `CCCCOCCCC`, the LD50 is 7400 mg/kg.
As for `NC(=O)NC(=O)Cc1ccccc1`, the LD50 was 1600 mg/kg.
`ClC(Cl)C(Cl)(Cl)Cl`: the LD50 was 920 mg/kg.
Consider `O=C1CN(N=Cc2ccc([N+](=O)[O-])o2)C(=O)N1`, for which the LD50 is 604 mg/kg.
For the compound `CCOC(=O)CCC1(CCC(=O)OCC)c2ccccc2-c2ccccc21`, the LD50 is 6170 mg/kg.
Turning to `CN1CSC(=S)N(C)C1`, the LD50 was 320 mg/kg.
Consider `CC(C(=O)O)c1ccc2c(c1)CC(=O)c1ccccc1S2` (configuration not stated), for which the LD50 is 425 mg/kg.
On to `CC(=O)NO`, for which the LD50 was 4800 mg/kg.
Consider `NNCCc1ccccc1`, for which the LD50 is 210 mg/kg.
On to `CS(=O)(=O)c1ccc(CN(CCO)C(=O)C(Cl)Cl)cc1`, for which the LD50 is 12500 mg/kg.
With `CC(C)NCC(O)COc1cccc2cc(C(C)O)oc12` (configuration not stated), the LD50 is 2130 mg/kg.
`CCCCOP(=O)(O)OCCCC`: the median lethal dose (LD50) is 3200 mg/kg and 3520 mg/kg.
On to `OCc1cccc(Oc2ccccc2)c1`, for which the LD50 is 1500 mg/kg.
